This is an account of results in US8148405B2, “Salt I” (AstraZeneca AB, priority 2005, dated 2012).

Data set [1] in a line: Hygroscopicity determination (vapor sorption, SGA-100). The data set is classed as physicochemical. To be noted: room temperature (25° C.). Here is the method:
The weight change of a test sample at room temperature (25° C.) and at 80% relative humidity (RH) were investigated by recording adsorption-desorption isotherms using a symmetric vapor-sorption analyser SGA-100 (VTI Corporation) using different methods, the main features being: a single sorption/desorption cycle from 0 to 90% RH in 10% RH steps with a dm/dt trigger value of 0.002%, (dm/dt=change in mass with time—when the balance stability is within this value the next step is automatically started, however, if those conditions are not achieved there is a default maximum time for each step of 6 hours). Approximately 2 to 10 mg of the test sample was placed in a sample holder and exposed to different relative humidities.

The nature of data set [2]: Evaluation of the deaggregation properties of micronised salt (TSI Aerodynamic Particle Sizer). The data set is classed as physicochemical. The protocol:
This screening study was intended to give some estimation regarding the deaggregation properties of anhydrous N-{2-[((2S)-3-{[1-(4-chlorobenzyl)piperidin-4-yl]amino}-2-hydroxy-2-methylpropyl)oxy]-4-hydroxyphenyl}acetamide benzoate salt, form B (referred to in the remainder of this example as “Form B salt”. The results were compared to the results from an established product powder, the Pulmicort® Turbuhaler® formulation, which was tested identically.
Form B salt was micronised in order to obtain a particle size of less than […]. Pulmicort® Turbuhaler® powder was emptied from the Pulmicort® Turbuhaler®. The latter formulation consists of micronised Budesonide powder that is spheronised into small pellets. The micronization of the Form B salt was performed in a spiral jet mill. Within the inner annular space of the jet mill there is a spiral classification. Fine particles will pass through this classification zone and out through a cyclone at the bottom of the mill. The fraction captured in the exhaust filter of the mill was discarded.
For deaggregation of the powders (both for Pulmicort® Turbuhaler® formulation and the Form B salt), the powders were scrape filled into a simple inhaler device comprising an L-shaped cylindrical channel, comprising a vertical component and a horizontal component.
A Turbuhaler® mouthpiece was fastened to the end of the horizontal component to promote deaggregation of the powder, and the powder to be tested was placed via the vertical channel into the bend of the channel (i.e. the corner of the L-shaped channel). An airflow pulse (see below) then activated the airflow through the vertical component of the channel, entraining the powder located in the bend, and the air-particle mixture is thereafter moved through the horizontal component of the cylinder and finally passed through the Turbuhaler® mouthpiece.
After leaving the Turbuhaler® mouthpiece, the aerosol was transferred to a TSI Aerodynamic Particle Sizer (APS®) with Impactor Inlet 3306 set-up where the aerosol cloud was analysed for its aerodynamic properties and fine particle fraction. The APS set-up was arranged in such a way as to allow withdrawal of doses at optional airflows, followed by counting and aerodynamic classification (ca. 0.3-20 μm) of the particles on a particle by particle basis. Briefly, between the USP throat and the 3306 Impacter Inlet, a three-way pneumatic valve and an NGI pre-separator was positioned. In addition, a tube to a vacuum source via a timer-controlled solenoid valve (Triggor Box) was positioned between the valve and the pre-separator in a T-joint fashion. A short airflow pulse is then generated through the inhaler, USP throat, and pre-separator using the Triggor box. After the end of the air pulse, the pneumatic valve switches so that the aerosol cloud in the pre-separator is drawn into the APS via the 3306 Impacter Inlet for aerodynamic assessment.
Each dose was withdrawn with an airflow pulse of duration 0.4 seconds with maximum airflow at 60 lpm, followed by sampling into the APS instrument. The sampling time in the APS software was set to 20 seconds. The result parameters from the APS were mass median aerodynamic diameter (MMAD), geometric standard deviation (GSD), and a measure of the dose amount (particle counting data converted to mass data using particle density=1) called fine particle dose (FPD).
The two first doses (for each formulation) were released and measured gravimetrically. The mean value of these gravimetric doses, denoted “metered doses” or loaded dose, were used for normalisation of the (FPD), which gives a measure of the fine particle fraction (FPF). The FPF can therefore be used for direct comparison between the two powder formulations (for the instrument set up used). The limit for fine particles was set to an aerodynamic particle size of 7 μm. Seven and five doses were then analysed with the APS for Pulmicort® Turbuhaler® formulation and for Form B salt, respectively. […]

Data set [3] in a line: Estimated solubility of the salt in organic solvents. The data set is classed as physicochemical. The following applies: for solubility: organic solvent or mixture. Here is the method: (b) The Form B salt described in (a) above was also prepared by dissolving, in a vial, 20% w of a sample of the benzoate salt prepared by the method of Example 1(b) (Form A) in a solvent such as methanol (>20 mg/ml), ethanol (>20 mg/ml), n-propanol (>20 mg/ml), isopropanol (8.5 mg/ml) or acetone (9.6 mg/ml). The figures in brackets indicate the estimated solubility of the salt in these solvents. The vial was then sealed and the suspension was homogenised at ambient temperature (20° C.) using a magnet. Stirring and temperature were maintained for a period of at least 7 days after which time a sample of the material obtained was dried and tested by XRPD. XRPD confirmed that there had been complete transformation of Form A to Form B.

The target in the next data set is T1, human CCR1 (Homo sapiens, UniProt P32246).
T1 construct: expressed in transfected cells; membranes
T1 sequence (P32246 1-355): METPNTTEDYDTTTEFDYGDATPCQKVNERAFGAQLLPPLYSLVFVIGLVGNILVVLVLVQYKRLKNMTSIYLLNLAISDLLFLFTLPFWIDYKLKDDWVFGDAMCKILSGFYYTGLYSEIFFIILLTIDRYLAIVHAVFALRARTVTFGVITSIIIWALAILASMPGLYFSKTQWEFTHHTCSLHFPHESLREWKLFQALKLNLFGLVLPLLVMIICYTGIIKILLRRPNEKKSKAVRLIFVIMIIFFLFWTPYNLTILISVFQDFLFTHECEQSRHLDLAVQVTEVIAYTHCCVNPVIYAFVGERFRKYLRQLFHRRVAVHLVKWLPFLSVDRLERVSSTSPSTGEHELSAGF
As to the kind of experiment: Human CCR1 binding assay ([125I] MIP-1α displacement, HEK-CCR1 membranes).

Values joined by “and” are separate entries in the source; they are usually repeats but may differ in a detail not shown here. Equal entries are not always repeated. Structures can show the parent of a compound that is named as a salt. Marks after values point to notes of the source that are not given here.

Description for human CCR1: HEK293 cells, from ECACC, stably expressing recombinant human CCR1 (HEK-CCR1) were used to prepare cell membranes containing CCR1. […] The concentration of membranes of each batch was adjusted to 10% specific binding of 33 pM [^125I] MIP-1α.
100 μL of HEK-CCR1 membranes diluted in assay buffer pH 7.4 (137 mM NaCl (Merck, Cat No 1.06404), 5.7 mM Glucose (Sigma, Cat No G5400), 2.7 mM KCl (Sigma, Cat No P-9333), 0.36 mM NaH2PO4×H2O (Merck, Cat No 1.06346), 10 mM HEPES (Sigma, Cat No H3375), 0.1% (w/v) Gelatine (Sigma, Cat No G2625)) with the addition of 17500 units/L Bacitracin (Sigma, Cat No B 1025) were added to each well of the 96 well filter plate (0.45 μm opaque Millipore cat no MHVB N4550). […] 12 μl assay buffer with 10% DMSO was added to certain wells (without compound) to detect maximal binding (B0).
12 μL [^125I] MIP-1α, diluted in assay buffer to a final concentration in the wells of 33 pM, was added to all wells. The plates with lid were then incubated for 1.5 hrs at room temperature. After incubation the wells were emptied by vacuum filtration (MultiScreen Resist Vacuum Manifold system, Millipore) and washed once with 200 μl assay buffer. After the wash, all wells received an addition of 50 μL of scintillation fluid (OptiPhase “Supermix”, Wallac Oy, Turko, Finland). Bound [^125I] MIP-1α was measured using a Wallac Trilux 1450 MicroBeta counter. […]

As for `CC(=O)Nc1ccc(O)cc1OC[C@@](C)(O)CNC1CCN(Cc2ccc(Cl)cc2)CC1` [Form B salt, N-{2-[((2S)-3-{[1-(4-chlorobenzyl)piperidin-4-yl]amino}-2-hydroxy-2-methylpropyl)oxy]-4-hydroxyphenyl}acetamide benzoate], in data set [1] (listed as Anhydrous Form B), the “Water Uptake (% w/w) at 80% RH” value was less than 0.8 % w/w. Besides, in data set [2], the “Normalized FPF (mean FPF Form B salt/mean FPF Pulmicort Turbuhaler formulation)” value is 164%^a. For the same compound, in data set [2] (in words), the “FPF compared with Pulmicort Turbuhaler formulation” value is reported as “generally higher” and the “de-aggregation properties (conclusion)” value was “advantageous de-aggregation properties”. In data set [2] (mean of doses), the “FPD (fine particle dose)” value is 182 µg and the “MMAD (mass median aerodynamic diameter)” value is reported as 2.16 μm. Also, in data set [2] (single dose, airflow pulse 0.4 seconds, 60 lpm), the “MMAD (mass median aerodynamic diameter)” value was 2.28 μm and 2.12 μm and 2.20 μm and 2.10 μm and 2.11 μm.
Consider `CC(=O)Nc1ccc(O)cc1OC[C@@](C)(O)CNC1CCN(Cc2ccc(Cl)cc2)CC1` [Form A, N-{2-[((2S)-3-{[1-(4-chlorobenzyl)piperidin-4-yl]amino}-2-hydroxy-2-methylpropyl)oxy]-4-hydroxyphenyl}acetamide benzoate], for which the estimated solubility in data set [3] (acetone) was 9.6 mg/mL; in data set [3] (isopropanol), 8.5 mg/mL. In addition, the solubility in data set [3] (ethanol), in data set [3] (methanol) and in data set [3] (n-propanol) was greater than 20 mg/mL in each case. Also, the “Water Uptake (% w/w) at 80% RH” value in data set [1] (listed as Anhydrous Form A) is recorded as less than 2 % w/w.
The compound `CC(=O)Nc1ccc(O)cc1OC[C@@](C)(O)CNC1CCN(Cc2ccc(Cl)cc2)CC1` [N-{2-[((2S)-3-{[1-(4-chlorobenzyl)piperidin-4-yl]amino}-2-hydroxy-2-methylpropyl)oxy]-4-hydroxyphenyl}acetamide ditrifluoroacetate] gave an IC50 on human CCR1 of less than 50 nM.

By solubility is commonly meant the concentration that dissolves in the medium under given conditions. One may read the IC50 as the concentration at which inhibition is half-maximal. A lower IC50 goes with greater potency.
